This note sets out measurements from patent US20130303509A1, “NAMPT INHIBITORS” (AbbVie Inc., priority 2012, published 2013).

Structures are written as SMILES.

For the experiment, the system named is PC3 cells. Kind of experiment: NAMPT Cell Proliferation Assay. The experiment is classed as cell-based. The settings on record: Homo sapiens, PC-3, 120 h, 5 days incubation, cell viability by Cell Titer Glo. In outline:
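Five-day CellTiter-Glo viability readout in PC3 cells grown in RPMI/10% heat-inactivated FBS. Compounds added after overnight attachment as a 10-fold dilution series, […]. Percent inhibition fitted to sigmoidal dose-response to derive IC50.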
In turn, `O=C(Nc1ccc(O[C@@H]2CCN(C(=O)C3CCCO3)C2)cc1)C1CN(c2cccnn2)C1` (stereo partly drawn) [Example 499, 1-(pyridazin-3-yl)-N-(4-{[(3R)-1-(tetrahydrofuran-2-ylcarbonyl)pyrrolidin-3-yl]oxy}phenyl)azetidine-3-carboxamide] yielded an IC50 of 12.1 nM.
`O=C(NC1CN(c2cccnn2)C1)c1ccc(C2CCN(C(=O)c3cccc(F)c3)CC2)s1` [Example 814, 5-[1-(3-fluorobenzoyl)piperidin-4-yl]-N-[1-(pyridazin-3-yl)azetidin-3-yl]thiophene-2-carboxamide] returned an IC50 of 81.9 nM.
On to `O=C(Nc1ccc(OC2CCN(C(=O)c3ccc(F)c(F)c3)CC2)cc1)C1CN(c2ccnnc2)C1` [Example 274, N-(4-{[1-(3,4-difluorobenzoyl)piperidin-4-yl]oxy}phenyl)-1-(pyridazin-4-yl)azetidine-3-carboxamide], for which half-maximal inhibition (IC50) required 107 nM.
On to `CC(C)(O)C(=O)N1CCC(Oc2ccc(NC(=O)[C@H]3CCN(c4cccnc4)C3)cc2)CC1` [Example 17, (3S)-N-(4-{[1-(2-hydroxy-2-methylpropanoyl)piperidin-4-yl]oxy}phenyl)-1-(pyridin-3-yl)pyrrolidine-3-carboxamide], for which 93.7 nM corresponded to half-maximal inhibition (IC50).
Consider `O=C(Nc1ccc(C2CCN(C(=O)C3CCC3)CC2)cc1)C1CN(c2cccnn2)C1` [Example 417, N-{4-[1-(cyclobutylcarbonyl)piperidin-4-yl]phenyl}-1-(pyridazin-3-yl)azetidine-3-carboxamide], for which the IC50 is 6.45 nM.
With `O=C(Nc1ccc(OC2CCN(C(=O)c3ccc(F)cc3)CC2)cc1)C1CN(c2ccnnc2)C1` [Example 271, N-(4-{[1-(4-fluorobenzoyl)piperidin-4-yl]oxy}phenyl)-1-(pyridazin-4-yl)azetidine-3-carboxamide], the IC50 came to 51.5 nM.
Turning to `O=C(Nc1ccc(C2CCN(C(=O)CC3CCCC3)CC2)cc1)[C@H]1CCN(c2cccnc2)C1` [Example 204, (3S)—N-{4-[1-(cyclopentylacetyl)piperidin-4-yl]phenyl}-1-(pyridin-3-yl)pyrrolidine-3-carboxamide], inhibition was half-maximal at 24.5 nM (IC50).
Compound `O=C(Nc1ccc(C2CCN(C(=O)CCCc3cccs3)CC2)cc1)C1CN(c2cccnn2)C1` [Example 415, 1-(pyridazin-3-yl)-N-(4-{1-[4-(thiophen-2-yl)butanoyl]piperidin-4-yl}phenyl)azetidine-3-carboxamide] showed an IC50 of 2.28 nM.
Compound `CC(C)(C(=O)N1CC[C@@H](Oc2ccc(NC(=O)C3CN(c4cccnn4)C3)cc2)C1)c1ccccc1` [Example 508, N-(4-{[(3R)-1-(2-methyl-2-phenylpropanoyl)pyrrolidin-3-yl]oxy}phenyl)-1-(pyridazin-3-yl)azetidine-3-carboxamide] had an IC50 of 0.79 nM.
Then `O=C(Nc1ccc(OC2CCN(C(=O)c3cccs3)CC2)cc1)C1CN(c2cccnc2)C1` [Example 61, 1-(pyridin-3-yl)-N-(4-{[1-(thiophen-2-ylcarbonyl)piperidin-4-yl]oxy}phenyl)azetidine-3-carboxamide], with 3.52 nM; and `C=CCCC(=O)N1CCC(c2ccc(NC(=O)C3CN(c4cccnn4)C3)cc2)CC1` [Example 331, N-{4-[1-(pent-4-enoyl)piperidin-4-yl]phenyl}-1-(pyridazin-3-yl)azetidine-3-carboxamide], with 2.09 nM; and `Cc1cc(C)cc(CC(=O)N2CCC(c3ccc(NC(=O)[C@H]4CCN(c5cccnn5)C4)cc3)CC2)c1` [Example 683, (3S)-N-(4-{1-[(3,5-dimethylphenyl)acetyl]piperidin-4-yl}phenyl)-1-(pyridazin-3-yl)pyrrolidine-3-carboxamide], with 9.02 nM.
As for `CC(C)(C)CC(=O)N1CCC(c2ccc(NC(=O)C3CN(c4ccnnc4)C3)c(F)c2)CC1` [Example 871, N-{4-[1-(3,3-dimethylbutanoyl)piperidin-4-yl]-2-fluorophenyl}-1-(pyridazin-4-yl)azetidine-3-carboxamide], the midpoint of inhibition, the IC50, lay at 3.61 nM.
Then `Cc1ccc(C(=O)N2CCC(c3ccc(NC(=O)[C@H]4CCN(c5cccnn5)C4)cc3)CC2)cc1F` [Example 719, (3S)-N-{4-[1-(3-fluoro-4-methylbenzoyl)piperidin-4-yl]phenyl}-1-(pyridazin-3-yl)pyrrolidine-3-carboxamide], with 9.63 nM; and `COCC(=O)N1CCC(c2ccc(NC(=O)[C@H]3CCN(c4cccnn4)C3)cc2)CC1` [Example 735, (3S)-N-{4-[1-(methoxyacetyl)piperidin-4-yl]phenyl}-1-(pyridazin-3-yl)pyrrolidine-3-carboxamide], with 68.9 nM; and `Cc1ncccc1N1CC(C(=O)Nc2ccc(C3CCN(C(=O)[C@H]4CCC(=O)N4)CC3)cc2)C1` [Example 167, 1-(2-methylpyridin-3-yl)-N-{4-[1-(5-oxo D-prolyl)piperidin-4-yl]phenyl}azetidine-3-carboxamide], with 6250 nM.
`CC(C)Cn1cc(-c2ccc(C(=O)NC3CN(c4cccnn4)C3)o2)cn1` [Example 309, 5-[1-(2-methylpropyl)-1H-pyrazol-4-yl]-N-[1-(pyridazin-3-yl)azetidin-3-yl]furan-2-carboxamide]: the IC50 amounted to 8200 nM.
Then `Cc1ccc(C(=O)N2CCC(c3ccc(NC(=O)C4CN(c5cccnn5)C4)cc3)CC2)s1` [Example 377, N-(4-{1-[(5-methylthiophen-2-yl)carbonyl]piperidin-4-yl}phenyl)-1-(pyridazin-3-yl)azetidine-3-carboxamide], with 2.13 nM; and `CC1(C(=O)N2CCC(c3ccc(NC(=O)[C@H]4CCN(c5cccnn5)C4)cc3)CC2)CC1` [Example 712, (3S)-N-(4-{1-[(1-methylcyclopropyl)carbonyl]piperidin-4-yl}phenyl)-1-(pyridazin-3-yl)pyrrolidine-3-carboxamide], with 6.79 nM.
`CC(C)(C)CC(=O)N1CCC(c2ccc(NC(=O)C3CN(c4cccnc4)C3)cc2)CC1` [Example 132, N-{4-[1-(3,3-dimethylbutanoyl)piperidin-4-yl]phenyl}-1-(pyridin-3-yl)azetidine-3-carboxamide] had a half-inhibitory concentration (IC50) of 0.23 nM.
Turning to `CCCCCC(=O)N1CCC(c2ccc(NC(=O)C3CN(c4cccnn4)C3)cc2)CC1` [Example 321, N-[4-(1-hexanoylpiperidin-4-yl)phenyl]-1-(pyridazin-3-yl)azetidine-3-carboxamide], the IC50 turned out to be 3.21 nM.
Consider `O=C(Nc1ccc(C2CC3CCC(C2)N3C(=O)CCC(F)(F)F)cc1)C1CN(c2cccnn2)C1` (stereo not drawn) [Example 841, 1-(pyridazin-3-yl)-N-{4-[8-(4,4,4-trifluorobutanoyl)-8-azabicyclo[3.2.1]oct-3-yl]phenyl}azetidine-3-carboxamide], for which half-maximal inhibition (IC50) required 3.55 nM.
Regarding `Cc1cc(F)ncc1N1CC(C(=O)Nc2ccc(C3CCN(C(=O)c4ccccc4)CC3)cc2)C1` [Example 739, N-[4-(1-benzoylpiperidin-4-yl)phenyl]-1-(6-fluoro-4-methylpyridin-3-yl)azetidine-3-carboxamide], the IC50 is 7310 nM.
For the compound `O=C(Nc1ccc(C2CCN(C(=O)C3CCCO3)CC2)cc1)C1CN(c2ccnnc2)C1` (stereo not drawn) [Example 538, 1-(pyridazin-4-yl)-N-{4-[1-(tetrahydrofuran-2-ylcarbonyl)piperidin-4-yl]phenyl}azetidine-3-carboxamide], the IC50 was 13.7 nM.
Take `CC(C)C(=O)N1CCC(c2ccc(NC(=O)C3CN(c4cccnn4)C3)c(F)c2)CC1` [Example 858, N-{2-fluoro-4-[1-(2-methylpropanoyl)piperidin-4-yl]phenyl}-1-(pyridazin-3-yl)azetidine-3-carboxamide]: the IC50 amounted to 4.36 nM.
Then `O=C(Nc1ccc(C2CCN(C(=O)c3ccccc3F)CC2)cc1)C1CCN(c2cccnn2)CC1` [Example 627, N-{4-[1-(2-fluorobenzoyl)piperidin-4-yl]phenyl}-1-(pyridazin-3-yl)piperidine-4-carboxamide], with 853 nM.
Turning to `Cc1ncccc1N1CC(C(=O)Nc2ccc(C3CCN(C(=O)C(C)C(C)C)CC3)cc2)C1` (stereo not drawn) [Example 198, N-{4-[1-(2,3-dimethylbutanoyl)piperidin-4-yl]phenyl}-1-(2-methylpyridin-3-yl)azetidine-3-carboxamide], half-maximal inhibition (IC50) required 71.6 nM.
For `O=C(Nc1ccc(C2CCN(C(=O)c3ccc(Cl)cc3)CC2)cc1)[C@H]1CCN(c2cccnn2)C1` [Example 663, (3S)-N-{4-[1-(4-chlorobenzoyl)piperidin-4-yl]phenyl}-1-(pyridazin-3-yl)pyrrolidine-3-carboxamide], the IC50 was 31.6 nM.
Compound `CCC(C)(C)C(=O)N1CCC(c2ccc(C(=O)NC3CN(c4cccnn4)C3)s2)CC1` [Example 850, 5-[1-(2,2-dimethylbutanoyl)piperidin-4-yl]-N-[1-(pyridazin-3-yl)azetidin-3-yl]thiophene-2-carboxamide] registered an IC50 of 70.5 nM.
The compound `O=C(Nc1ccc(-c2cnn(CC3CC3)c2)cc1)[C@H]1CCN(c2cccnn2)C1` [Example 771, (3S)-N-{4-[1-(cyclopropylmethyl)-1H-pyrazol-4-yl]phenyl}-1-(pyridazin-3-yl)pyrrolidine-3-carboxamide] returned an IC50 of 69.9 nM.
Compound `Cc1ncccc1N1CC(C(=O)Nc2ccc(C3CCN(C(=O)C(C)(C)O)CC3)cc2)C1` [Example 71, N-{4-[1-(2-hydroxy-2-methylpropanoyl)piperidin-4-yl]phenyl}-1-(2-methylpyridin-3-yl)azetidine-3-carboxamide] had an IC50 of 72.9 nM.
In the case of `CC(C)Cn1cc(-c2cc(C(=O)N[C@@H]3CCN(c4ccnnc4)C3)cs2)cn1` [Example 624, 5-[1-(2-methylpropyl)-1H-pyrazol-4-yl]-N-[(3R)-1-(pyridazin-4-yl)pyrrolidin-3-yl]thiophene-3-carboxamide], the IC50 was more than 10000 nM.
`Cc1ncccc1N1CC(C(=O)Nc2ccc(C3CCN(C(=O)CCN4CCCCC4)CC3)cc2)C1` [Example 190, 1-(2-methylpyridin-3-yl)-N-(4-{1-[3-(piperidin-1-yl)propanoyl]piperidin-4-yl}phenyl)azetidine-3-carboxamide] gave an IC50 of 694 nM.
